Data reported in US6355799B1, “Substituted benzene compounds, process for their preparation, and herbicidal and defoliant compositions containing them” (ISK Americas Incorporated, priority 1997, dated 2002).

How the values were obtained:
Assay type in all cases: in vivo
[1] = tested on: redroot pigweed (Amaranthus retroflexus, AMARE); experiment: Pre-emerge test, greenhouse herbicide activity screening; conditions: pre-emerge, phytotoxicity rating 0-100 at 14 days after application
Procedure, shortened: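 Herbicidal damage is scored 0 (none) to 100 (complete plant death) two weeks after a simulated field spray. Rates span 15–1000 g ai/ha, delivered in acetone at 187 l/ha. For post-emergence treatments, plants have 2–3 leaves and the spray carries 0.25% v/v non-ionic surfactant.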

[2] = tested on: field corn (Zea mays L., var. Dekalb 535, CORN); experiment: Pre-emerge test, crop safety; conditions: crop damage, pre-emerge, phytotoxicity rating 0-100 at 14 days after application
Procedure, shortened: (§1)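 Fourteen days after spraying, crop and weed injury was graded visually from 0, no effect, to 100, every plant dead. Test substances were dissolved in acetone and applied at 15–1000 g ai/ha with a flat-fan nozzle. Application was either pre-emergence, one day after sowing, or post-emergence at the 2–3 leaf stage.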

[3] = tested on: upland rice (Oryza sp., var. Tebonnet, RICE); experiment: Pre-emerge test, crop safety; conditions: crop damage, pre-emerge, phytotoxicity rating 0-100 at 14 days after application
Procedure, shortened: as §1

[4] = tested on: field corn (Zea mays L., var. Dekalb 535, CORN); experiment: Post-emerge test, crop safety; conditions: post-emerge, crop damage rating 0-100 at 14 days after application
Procedure, shortened: (§2)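 Applied at 15–1000 g ai/ha from acetone in 187 l/ha spray volume. Post-emergence applications included 0.25% v/v non-ionic surfactant and reached plants sown 8–21 days before. Pre-emergence applications were incorporated by surface watering. Efficacy or crop damage was rated on a 0–100 scale after 14 days.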

[5] = tested on: upland rice (Oryza sp., var. Tebonnet, RICE); experiment: Post-emerge test, crop safety; conditions: post-emerge, crop damage rating 0-100 at 14 days after application
Procedure, shortened: as §2

[6] = tested on: lambsquarters (Chenopodium album, CHEAL); experiment: Post-emerge test, greenhouse herbicide activity screening; conditions: post-emerge, phytotoxicity rating 0-100 at 14 days after application
Procedure, shortened: (§3)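 Compounds in acetone were track-sprayed at 15–1000 g ai/ha: pre-emergence onto soil sown the previous day, then top-watered to incorporate and later bottom-watered; post-emergence onto 2–3 leaf plants with 0.25% v/v surfactant, bottom-watered only. Ratings on a 0–100 phytotoxicity scale were taken at day 14.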

[7] = tested on: sicklepod (Cassia obtusifolia, CASOB); experiment: as above; conditions: post-emerge, phytotoxicity rating 0-100 at 14 days after application
Procedure, shortened: as §3

[8] = tested on: large crabgrass (Digitaria sanguinalis, DIGSA); experiment: as above; conditions: post-emerge, phytotoxicity rating 0-100 at 14 days after application
Procedure, shortened: as §3

[9] = tested on: green foxtail (Setaria viridis, SETVI); experiment: as above; conditions: post-emerge, phytotoxicity rating 0-100 at 14 days after application
Procedure, shortened: as §3

[10] = tested on: velvetleaf (Abutilon theophrasti, ABUTH); experiment: as above; conditions: post-emerge, phytotoxicity rating 0-100 at 14 days after application
Procedure, shortened: as §3

[11] = tested on: barnyardgrass (Echinochloa crus-galli, ECHCG); experiment: as above; conditions: post-emerge, phytotoxicity rating 0-100 at 14 days after application
Procedure, shortened: as §3

[12] = tested on: johnsongrass (Sorghum halepense, SORHA); experiment: as above; conditions: post-emerge, phytotoxicity rating 0-100 at 14 days after application
Procedure, shortened: as §3

[13] = tested on: redroot pigweed (Amaranthus retroflexus, AMARE); experiment: as above; conditions: post-emerge, phytotoxicity rating 0-100 at 14 days after application
Procedure, shortened: as §3

[14] = tested on: ivyleaf morningglory (Ipomoea hederacea, IPOHE); experiment: as above; conditions: post-emerge, phytotoxicity rating 0-100 at 14 days after application
Procedure, shortened: as §3

[15] = tested on: lambsquarters (Chenopodium album, CHEAL); experiment: Pre-emerge test, greenhouse herbicide activity screening; conditions: pre-emerge, phytotoxicity rating 0-100 at 14 days after application
Procedure, shortened: as §2

[16] = tested on: sicklepod (Cassia obtusifolia, CASOB); experiment: as above; conditions: pre-emerge, phytotoxicity rating 0-100 at 14 days after application
Procedure, shortened: as §2

[17] = tested on: large crabgrass (Digitaria sanguinalis, DIGSA); experiment: as above; conditions: pre-emerge, phytotoxicity rating 0-100 at 14 days after application
Procedure, shortened: as §2

[18] = tested on: green foxtail (Setaria viridis, SETVI); experiment: as above; conditions: pre-emerge, phytotoxicity rating 0-100 at 14 days after application
Procedure, shortened: as §2

[19] = tested on: velvetleaf (Abutilon theophrasti, ABUTH); experiment: as above; conditions: pre-emerge, phytotoxicity rating 0-100 at 14 days after application
Procedure, shortened: as §2

[20] = tested on: barnyardgrass (Echinochloa crus-galli, ECHCG); experiment: as above; conditions: pre-emerge, phytotoxicity rating 0-100 at 14 days after application
Procedure, shortened: as §2

[21] = tested on: johnsongrass (Sorghum halepense, SORHA); experiment: as above; conditions: pre-emerge, phytotoxicity rating 0-100 at 14 days after application
Procedure, shortened: as §2

[22] = tested on: ivyleaf morningglory (Ipomoea hederacea, IPOHE); experiment: as above; conditions: pre-emerge, phytotoxicity rating 0-100 at 14 days after application
Procedure, shortened: as §2

## COc1c(Cl)cc(F)c(-n2c(=O)n3n(c2=O)CCCC3)c1NC(=O)c1ccc(F)cc1F [9-16]
[1]; rate 63 g ai/ha
  Pre-emerge Herbicidal Activity AMARE: 70
[1]; rate 250 g ai/ha
  Pre-emerge Herbicidal Activity AMARE: 100
[2]; rate 63 g ai/ha
  Pre-emerge Herbicidal Activity CORN: 0
[2]; rate 250 g ai/ha
  Pre-emerge Herbicidal Activity CORN: 90
[3]; rate 63 g ai/ha
  Pre-emerge Herbicidal Activity RICE: 80
[3]; rate 250 g ai/ha
  Pre-emerge Herbicidal Activity RICE: 90
[4]; 63 g ai/ha
  Post-emerge Herbicidal Activity CORN: 5
[4]; 250 g ai/ha
  Post-emerge Herbicidal Activity CORN: 65
[5]; 63 g ai/ha
  Post-emerge Herbicidal Activity RICE: 30
[5]; 250 g ai/ha
  Post-emerge Herbicidal Activity RICE: 70
[6]; 63 g ai/ha
  Post-emerge Herbicidal Activity CHEAL: 65
[6]; 250 g ai/ha
  Post-emerge Herbicidal Activity CHEAL: 80
[7]; 63 g ai/ha
  Post-emerge Herbicidal Activity CASOB: 50
[7]; 250 g ai/ha
  Post-emerge Herbicidal Activity CASOB: 85
[8]; 63 g ai/ha
  Post-emerge Herbicidal Activity DIGSA: 10
[8]; 250 g ai/ha
  Post-emerge Herbicidal Activity DIGSA: 0
[9]; 63 g ai/ha
  Post-emerge Herbicidal Activity SETVI: 0
[9]; 250 g ai/ha
  Post-emerge Herbicidal Activity SETVI: 20
[10]; 63 g ai/ha
  Post-emerge Herbicidal Activity ABUTH: 100
[10]; 250 g ai/ha
  Post-emerge Herbicidal Activity ABUTH: 100
[11]; 63 g ai/ha
  Post-emerge Herbicidal Activity ECHCG: 0
[11]; 250 g ai/ha
  Post-emerge Herbicidal Activity ECHCG: 10
[12]; 63 g ai/ha
  Post-emerge Herbicidal Activity SORHA: 0
[12]; 250 g ai/ha
  Post-emerge Herbicidal Activity SORHA: 0
[13]; 63 g ai/ha
  Post-emerge Herbicidal Activity AMARE: 30
[13]; 250 g ai/ha
  Post-emerge Herbicidal Activity AMARE: 75
[14]; 63 g ai/ha
  Post-emerge Herbicidal Activity IPOHE: 90
[14]; 250 g ai/ha
  Post-emerge Herbicidal Activity IPOHE: 100
[15]; rate 63 g ai/ha
  Pre-emerge Herbicidal Activity CHEAL: 100
[15]; rate 250 g ai/ha
  Pre-emerge Herbicidal Activity CHEAL: 100
[16]; rate 63 g ai/ha
  Pre-emerge Herbicidal Activity CASOB: 20
[16]; rate 250 g ai/ha
  Pre-emerge Herbicidal Activity CASOB: 60
[17]; rate 63 g ai/ha
  Pre-emerge Herbicidal Activity DIGSA: 10
[17]; rate 250 g ai/ha
  Pre-emerge Herbicidal Activity DIGSA: 40
[18]; rate 63 g ai/ha
  Pre-emerge Herbicidal Activity SETVI: 39
[18]; rate 250 g ai/ha
  Pre-emerge Herbicidal Activity SETVI: 70
[19]; rate 63 g ai/ha
  Pre-emerge Herbicidal Activity ABUTH: 100
[19]; rate 250 g ai/ha
  Pre-emerge Herbicidal Activity ABUTH: 100
[20]; rate 63 g ai/ha
  Pre-emerge Herbicidal Activity ECHCG: 0
[20]; rate 250 g ai/ha
  Pre-emerge Herbicidal Activity ECHCG: 40
[21]; rate 63 g ai/ha
  Pre-emerge Herbicidal Activity SORHA: 10
[21]; rate 250 g ai/ha
  Pre-emerge Herbicidal Activity SORHA: 40
[22]; rate 63 g ai/ha
  Pre-emerge Herbicidal Activity IPOHE: 70
[22]; rate 250 g ai/ha
  Pre-emerge Herbicidal Activity IPOHE: 70
